Here are results for one compound from patent publication US12419889B2, “Methods of treating chronic spontaneous urticaria using a bruton's tyrosine kinase inhibitor” (NOVARTIS AG, priority 2019, dated 2025).

The target of test [1] is T1, BTK (Homo sapiens, UniProt Q06187).
T1 construct: from tissue; host or cells: human whole (peripheral) blood of healthy volunteers and atopic subjects
As to the kind of experiment: BTK occupancy in human whole blood (free and total BTK, ELISA on MSD platform). In kind it is in vivo. The protocol: Pharmacodynamics (PD) was characterized by assessing target occupancy and distal pathway inhibition. Measurements of BTK occupancy in human whole blood (derived as ratio of free and total BTK), served as direct marker of therapeutic target engagement.
Compound of formula (I) is an irreversible inhibitor of BTK, the extent and duration of BTK occupancy were determined.
The relationship between dose and pharmacodynamics was characterized by measurements of BTK occupancy in human blood (derived as ratio of free and total BTK), a direct marker of therapeutic target engagement. BTK occupancy was determined for single ascending doses ranging 0.5 to 400 mg, for q.d. multiple ascending doses ranging from of 10 mg and 400 mg, and for b.i.d. multiple ascending doses of 100 mg and 200 mg.
(An ELISA detects its analyte on a solid surface through an enzyme-linked reagent.)

In test [2] the target is T2, BTK (Rattus norvegicus, UniProt Q5S255).
T2 construct: Unoccupied BTK, as well as total BTK relative protein levels were determined in lysates of selected tissues; from tissue; host or cells: rat spleen, blood, lymph nodes, lung
T2 sequence (Q5S255 1-660): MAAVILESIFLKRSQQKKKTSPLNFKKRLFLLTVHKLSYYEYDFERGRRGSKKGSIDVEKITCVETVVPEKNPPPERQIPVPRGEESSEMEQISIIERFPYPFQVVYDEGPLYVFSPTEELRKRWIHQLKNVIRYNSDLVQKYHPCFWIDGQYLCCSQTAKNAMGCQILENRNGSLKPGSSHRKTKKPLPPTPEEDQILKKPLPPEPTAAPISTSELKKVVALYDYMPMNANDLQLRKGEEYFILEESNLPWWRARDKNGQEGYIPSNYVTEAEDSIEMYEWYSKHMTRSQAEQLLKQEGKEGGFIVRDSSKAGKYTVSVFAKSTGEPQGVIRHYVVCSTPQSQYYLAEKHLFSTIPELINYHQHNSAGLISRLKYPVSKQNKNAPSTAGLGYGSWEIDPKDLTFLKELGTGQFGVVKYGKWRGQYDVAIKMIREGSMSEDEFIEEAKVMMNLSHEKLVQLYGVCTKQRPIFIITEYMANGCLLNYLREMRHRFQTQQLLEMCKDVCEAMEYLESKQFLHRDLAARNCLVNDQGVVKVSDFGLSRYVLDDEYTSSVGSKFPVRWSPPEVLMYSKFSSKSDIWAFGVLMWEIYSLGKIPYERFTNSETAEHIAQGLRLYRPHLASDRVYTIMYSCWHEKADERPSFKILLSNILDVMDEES
In words: BTK occupancy ex vivo immunoassay in rat tissues after oral dosing. Here is the method: The in vivo PD effects of an irreversible BTK inhibitor like compound (I) are determined by the extent and duration of covalent BTK occupancy by the inhibitor. BTK occupancy after treatment with Compound of Formula (I) (also referenced to as Compound (I)) was measured in an ex vivo immunoassay. The fraction of unoccupied BTK protein was assayed after in vitro incubation with a covalent biotinylated BTK probe, since compound (I) and the probe bind to BTK in a mutually exclusive manner. Unoccupied BTK, as well as total BTK relative protein levels were determined in lysates of selected tissues and levels of unoccupied BTK were normalized to total BTK protein levels in the same samples.
From the experimental data it was apparent that a short transient systemic exposure of compound (I) is sufficient to achieve full BTK occupancy in several tissues at low oral doses of 1-3 mg/kg. […] This very low and transient systemic exposure is consistent with the PK/PD model typical of irreversible inhibitors.
The duration of BTK occupancy was determined in rats and mice after single oral dose of compound (I) for spleen, blood, lymph nodes and lung. […] The longer persistence of BTK occupancy in blood has been reported before (Advani et al 2013, J Clin Onc; 31(1):88-94).

T1 sequence (Q06187 whole entry): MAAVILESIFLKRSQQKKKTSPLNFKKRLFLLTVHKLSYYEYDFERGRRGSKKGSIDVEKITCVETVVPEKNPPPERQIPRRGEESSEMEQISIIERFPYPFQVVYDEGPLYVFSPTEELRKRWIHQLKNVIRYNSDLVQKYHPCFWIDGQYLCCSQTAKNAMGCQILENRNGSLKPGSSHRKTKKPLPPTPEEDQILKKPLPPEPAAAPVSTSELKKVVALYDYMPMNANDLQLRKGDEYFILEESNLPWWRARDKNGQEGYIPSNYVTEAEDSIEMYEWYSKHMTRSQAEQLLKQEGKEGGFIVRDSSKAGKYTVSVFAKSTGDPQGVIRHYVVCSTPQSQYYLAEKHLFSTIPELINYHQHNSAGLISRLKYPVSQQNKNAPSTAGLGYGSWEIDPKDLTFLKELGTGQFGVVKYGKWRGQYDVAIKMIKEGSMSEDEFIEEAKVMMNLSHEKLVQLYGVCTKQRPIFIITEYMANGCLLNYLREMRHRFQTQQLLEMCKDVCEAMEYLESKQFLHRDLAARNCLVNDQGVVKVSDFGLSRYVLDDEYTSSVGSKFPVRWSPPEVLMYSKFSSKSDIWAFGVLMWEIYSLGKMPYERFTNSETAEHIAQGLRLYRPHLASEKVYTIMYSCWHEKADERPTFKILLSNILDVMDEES

Turning to `C=CC(=O)N(C)CCOc1c(N)ncnc1-c1cc(F)cc(NC(=O)c2ccc(C3CC3)cc2F)c1C` [Compound (I), N-(3-(6-Amino-5-(2-(N-methylacrylamido)ethoxy)pyrimidin-4-yl)-5-fluoro-2-methylphenyl)-4-cyclopropyl-2-fluorobenzamide], in test [1] (10 mg q.d.), the “BTK occupancy in blood” value was “nearly complete”. The “duration of BTK occupancy in blood” value in test [1] (blood) is greater than 24 h. Further, in test [1] (blood, after single dose), the “median BTK turnover T1/2” value is reported as “about 48 hours” and the “time to refresh BTK protein pool to pre-dose levels” value is on record as “about 10 days”. Besides, the “duration of sustained BTK occupancy” value in test [1] (blood, single doses of 30 mg and higher) is given as greater than 24 h. The “time of peak target (BTK) occupancy post dose” value in test [1] (peripheral blood) is listed as 0.5 h. Besides, the “spleen BTK occupancy” value in test [2] (female rats, single oral dose 3 mg/kg) was “full”. In addition, the “BTK occupancy half-life in spleen” value in test [2] (rat spleen, single oral dose, estimated) is “approximately 5 hours”. In test [2] (rats, single oral dose), the “BTK occupancy half-life in blood” value is on record as “approximately 87 hours”.
